Measurements published in PubChem BioAssay (NCI).
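How tested: cells in 96-well plates exposed to compound for 48 hours at five concentrations. At the GI50, growth is halved. TGI is the concentration that stops growth completely.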

What was measured:
Assay in all cases: NCI-60 cell line screen, 48 h
[1] = tested on: SR leukemia
[2] = tested on: LXFL 529 NSCLC
[3] = tested on: M19-MEL melanoma
[4] = tested on: DMS 114 small cell lung
[5] = tested on: DMS 273 small cell lung
[6] = tested on: DLD-1 colon
[7] = tested on: 786-0 renal

Structure (SMILES) | GI50 [1] [µM] | TGI [1] [µM] | TGI [3] [µM] | TGI [4] [µM] | TGI [5] [µM] | TGI [6] [µM] | TGI [7] [µM] | also measured
O=C(Nc1cccc(-n2ccc3c(NC(=O)c4ccccc4)nccc32)c1)c1ccc(N2CCOCC2)c(C(F)(F)F)c1 | 0.045 | > 100 | – | – | – | – | – | –
CC[C@]1(O)C[C@H]2CN(CCc3c([nH]c4ccccc34)[C@@](C(=O)OC)(c3cc4c(cc3OC)N(C=O)[C@H]3[C@@](O)(C(=O)OC)[C@H](OC(C)=O)[C@]5(CC)C=CCN6CC[C@]43[C@@H]65)C2)C1 | 0.00657 | – | 169 | 0.56 | 3.13 | 144 | – | TGI [2]: 7.81 µM
O=C1OC(c2ccccc2)=N/C1=C\c1cccnc1 | – | > 100 | – | – | – | – | – | –
COC1=C2CC(C)CC(OC)C(O)C(C)/C=C(\C)C(OC(N)=O)C(OC)/C=C\C=C(/C)C(=O)NC(=C(C=NC(C)(C)C)C1=O)C2=O (stereo unspecified) | – | – | 15.6 | 3.82 | 11.9 | 45.7 | – | –
CS(=O)(=O)c1ccc(/C=N/NC(N)=S)cc1 | – | – | – | – | – | – | > 100 | –
Nc1ncnc2c1ncn2C1OC(COP(=O)(O)O)C(O)C1O (stereo unspecified) | – | – | > 50 | > 50 | > 50 | > 31.6 | – | –
Fc1ccc2[nH]cc(-c3nc(-c4c[nH]c5ncccc45)cs3)c2c1 | 2.79 | > 100 | – | – | – | – | – | –
C/C(CC/C(C)=N/O)=N\O | – | – | – | – | – | – | > 100 | –
N/C(=N\N=C/c1ccccc1O)NO | – | – | > 100 | 30.7 | 28.7 | > 45.6 | – | –
O=C(O)c1cc2ccccc2c(N=Nc2ccccc2)c1O | – | – | – | – | – | – | > 100 | –
